What all share (test): relative viability (nuclei count vs DMSO), 5 days (fraction); higher = more cells survive
Compound in the test “GSK-J4 + Luminespib”: CCOC(=O)CCNc1cc(N2CCc3ccccc3CC2)nc(-c2ccccn2)n1 [GSK-J4] + CCNC(=O)c1noc(-c2cc(C(C)C)c(O)cc2O)c1-c1ccc(CN2CCOCC2)cc1 [Luminespib] (partner 0.01 µM)
The method, boiled down: (§1)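 One day after seeding in 1536-well plates, lung cancer cell lines were dosed by pin tool. Dosing was either single-drug or a fixed anchor-drug dose plus five library-drug doses (not always all listed) in √10 steps. After 5 days, nuclei were stained in one fix-and-stain step and counted on 4× images, and relative viability is the nuclei count of treated wells over that of vehicle wells, given as the median of duplicate plates.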

Compound in the test “AZ3146 + Trametinib”: CN1CCC(CC1)OC2=CC(=C(C=C2)NC3=NC=C4C(=N3)N(C(=O)N4C)C5CCCC5)OC [AZ3146] + CC(=O)Nc1cccc(-n2c(=O)n(C3CC3)c(=O)c3c(Nc4ccc(I)cc4F)n(C)c(=O)c(C)c32)c1 [Trametinib] (partner 0.02 µM)
The gist of the method:
as §1

Compound in the test “AZ3146 + Linsitinib”: CN1CCC(CC1)OC2=CC(=C(C=C2)NC3=NC=C4C(=N3)N(C(=O)N4C)C5CCCC5)OC [AZ3146] + C[C@]1(O)C[C@@H](c2nc(-c3ccc4ccc(-c5ccccc5)nc4c3)c3c(N)nccn32)C1 [Linsitinib] (partner 1 µM)
The gist of the method: as §1

Compound in the test “AZ3146 + Decitabine”: CN1CCC(CC1)OC2=CC(=C(C=C2)NC3=NC=C4C(=N3)N(C(=O)N4C)C5CCCC5)OC [AZ3146] + Nc1ncn([C@H]2C[C@H](O)[C@@H](CO)O2)c(=O)n1 [Decitabine] (partner 2 µM)
The method, boiled down:
as §1

The values that follow come from the supplement of paper PMC10307832.

For NCI-H441, the relative viability is 0.303 with GSK-J4 + Luminespib (first compound 0.5 µM); 0.298 with GSK-J4 + Luminespib (first compound 1.581 µM); 0.476 in the test with GSK-J4 + Luminespib (first compound 5 µM); 0.394 with GSK-J4 + Luminespib (first compound 15.81 µM); 0.308 with GSK-J4 + Luminespib (first compound 50 µM); 0.512 with AZ3146 + Trametinib (first compound 0.08 µM). Moreover, the relative viability came out at 0.438 in the test with AZ3146 + Trametinib (first compound 0.253 µM); 0.429 with AZ3146 + Trametinib (first compound 0.8 µM); 0.501 in the test with AZ3146 + Trametinib (first compound 2.53 µM); 0.362 with AZ3146 + Trametinib (first compound 8 µM); 0.479 in the test with AZ3146 + Linsitinib (first compound 0.08 µM); 0.525 with AZ3146 + Linsitinib (first compound 0.253 µM). Also, the relative viability with AZ3146 + Linsitinib (first compound 0.8 µM) stood at 0.474; with AZ3146 + Linsitinib (first compound 2.53 µM), 0.635; with AZ3146 + Linsitinib (first compound 8 µM), 0.621; with AZ3146 + Decitabine (first compound 0.08 µM), 0.203; with AZ3146 + Decitabine (first compound 0.253 µM), 0.284; with AZ3146 + Decitabine (first compound 0.8 µM), 0.259. Further, the relative viability stood at 0.254 in the test with AZ3146 + Decitabine (first compound 2.53 µM) and 0.237 with AZ3146 + Decitabine (first compound 8 µM).

As for NCI-H460, the relative viability with GSK-J4 + Luminespib (first compound 0.5 µM) amounted to 0.0274; in the test with GSK-J4 + Luminespib (first compound 1.581 µM) it was 0.0313; with GSK-J4 + Luminespib (first compound 5 µM), 0.03; with GSK-J4 + Luminespib (first compound 15.81 µM), 0.0363; with GSK-J4 + Luminespib (first compound 50 µM) it was 0.0333; with AZ3146 + Trametinib (first compound 0.08 µM), 0.132. In addition, the relative viability amounted to 0.134 in the test with AZ3146 + Trametinib (first compound 0.253 µM); 0.0913 in the test with AZ3146 + Trametinib (first compound 0.8 µM); 0.0867 with AZ3146 + Trametinib (first compound 2.53 µM); 0.107 in the test with AZ3146 + Trametinib (first compound 8 µM); 0.719 with AZ3146 + Linsitinib (first compound 0.08 µM); 0.824 in the test with AZ3146 + Linsitinib (first compound 0.253 µM). For the same cell line, the relative viability amounted to 0.65 with AZ3146 + Linsitinib (first compound 0.8 µM); 0.787 in the test with AZ3146 + Linsitinib (first compound 2.53 µM); 0.244 in the test with AZ3146 + Linsitinib (first compound 8 µM); 0.38 with AZ3146 + Decitabine (first compound 0.08 µM); 0.475 with AZ3146 + Decitabine (first compound 0.253 µM); 0.445 with AZ3146 + Decitabine (first compound 0.8 µM). In addition, the relative viability with AZ3146 + Decitabine (first compound 2.53 µM) was determined as 0.467; with AZ3146 + Decitabine (first compound 8 µM), 0.178.

Turning to NCI-H520, the relative viability with GSK-J4 + Luminespib (first compound 0.5 µM) was 0.215; with GSK-J4 + Luminespib (first compound 1.581 µM), 0.242; in the test with GSK-J4 + Luminespib (first compound 5 µM), 0.207; with GSK-J4 + Luminespib (first compound 15.81 µM), 0.194; in the test with GSK-J4 + Luminespib (first compound 50 µM), 0.197; with AZ3146 + Trametinib (first compound 0.08 µM), 0.643. The relative viability with AZ3146 + Trametinib (first compound 0.253 µM) was determined as 0.691; in the test with AZ3146 + Trametinib (first compound 0.8 µM), 0.54; with AZ3146 + Trametinib (first compound 2.53 µM), 0.677; in the test with AZ3146 + Trametinib (first compound 8 µM) it was 0.49; with AZ3146 + Linsitinib (first compound 0.08 µM), 0.843; with AZ3146 + Linsitinib (first compound 0.253 µM), 0.896. Besides, the relative viability is 1.05 with AZ3146 + Linsitinib (first compound 0.8 µM); 1.12 with AZ3146 + Linsitinib (first compound 2.53 µM); 0.786 with AZ3146 + Linsitinib (first compound 8 µM); 0.468 with AZ3146 + Decitabine (first compound 0.08 µM); 0.607 with AZ3146 + Decitabine (first compound 0.253 µM); 0.536 with AZ3146 + Decitabine (first compound 0.8 µM). The relative viability amounted to 0.511 in the test with AZ3146 + Decitabine (first compound 2.53 µM) and 0.359 in the test with AZ3146 + Decitabine (first compound 8 µM).

For NCI-H596, the relative viability with GSK-J4 + Luminespib (first compound 0.5 µM) was found to be 0.981; with GSK-J4 + Luminespib (first compound 1.581 µM) it was 0.969; in the test with GSK-J4 + Luminespib (first compound 5 µM) it was 1.23; in the test with GSK-J4 + Luminespib (first compound 15.81 µM) it was 0.941; in the test with GSK-J4 + Luminespib (first compound 50 µM) it was 0.807; with AZ3146 + Trametinib (first compound 0.08 µM) it was 0.806. Further, the relative viability with AZ3146 + Trametinib (first compound 0.253 µM) worked out at 0.643; with AZ3146 + Trametinib (first compound 0.8 µM), 0.766; in the test with AZ3146 + Trametinib (first compound 2.53 µM), 0.89; with AZ3146 + Trametinib (first compound 8 µM) it was 0.919; in the test with AZ3146 + Linsitinib (first compound 0.08 µM), 1.1; with AZ3146 + Linsitinib (first compound 0.253 µM), 1.01. Moreover, the relative viability in the test with AZ3146 + Linsitinib (first compound 0.8 µM) was 1.01; in the test with AZ3146 + Linsitinib (first compound 2.53 µM), 1.04; with AZ3146 + Linsitinib (first compound 8 µM) it was 1.1; with AZ3146 + Decitabine (first compound 0.08 µM), 0.91; in the test with AZ3146 + Decitabine (first compound 0.253 µM), 0.92; with AZ3146 + Decitabine (first compound 0.8 µM), 1.2. The relative viability came to 1.3 in the test with AZ3146 + Decitabine (first compound 2.53 µM) and 1.03 with AZ3146 + Decitabine (first compound 8 µM).
